Data set [1] is described as follows: Molar enthalpy of transition or fusion. To be noted: Crystal; DSC.
For data set [2] the following is noted: Crystal; DTA.

Numbers after ± are expanded uncertainties.

Take `CCCCCCCCCCCC(=O)OCC` [ethyl dodecanoate]: the “Molar enthalpy of transition or fusion” value in data set [1] amounted to 9.29 ± 0.263 kcal/mol. Further, in data set [2], the Normal melting temperature was 0.1 ± 0.7 °C.

In the case of `CCCCCCCCCCCCCCCC(=O)OCC` [ethyl hexadecanoate], the “Molar enthalpy of transition or fusion” value in data set [1] was 13.3 ± 0.359 kcal/mol. In addition, in data set [2], the Normal melting temperature stood at 25.08 ± 0.7 °C.

Regarding `CCCCCCCCCCCCCCCCCC(=O)OCC` [ethyl octadecanoate], the “Molar enthalpy of transition or fusion” value in data set [1] was determined as 14.3 ± 0.382 kcal/mol. The Normal melting temperature in data set [2] was found to be 34.2 ± 0.7 °C.

(Values after the NIST ThermoML archive (doi:10.1016/j.fluid.2013.08.024).)
